24 molecules from patent publication US20090209528A1, “SUBSTITUTED TETRAHYDROISOQUINOLINE COMPOUND, THEIR PREPARATION AND USE IN MEDICAMENTS” (LABORATORIOS DEL DR. ESTEVE S.A., priority 2006, published 2009) can be followed below.

The assay concerns the target T1, 5HT6-human recombinant receptor (Homo sapiens, UniProt P50406).
T1 construct: purchased Receptor Biology; host or cells: HEK-293 cell membranes
Nature of the assay: Binding to serotonin receptor 5-HT6 ([3H]-LSD displacement). Conditions: radioligand [3H]-LSD 2.7 nM; for inhibition at 0.01 µM / inhibition at 0.1 µM: 1 h; for inhibition at 0.01 µM: compound at 10 nM; for inhibition at 0.1 µM: compound at 100 nM; for Ki: membranes of HEK-293 cells expressing the receptor, 60 min, 37° C. Here is the method:
Cell membranes of HEK-293 cells expressing the 5HT6-human recombinant receptor were supplied by Receptor Biology. In said membranes the receptor concentration is 2.18 pmol/mg protein and the protein concentration is 9.17 mg/ml. The experimental protocol follows the method of B. L. Roth et al. [B. L. Roth, S. C. Craigo, M. S. Choudhary, A. Uluer, F. J. Monsma, Y. Shen, H. Y. Meltzer, D. R. Sibley: Binding of Typical and Atypical Antipsychotic Agents to 5-Hydroxytryptamine-6 and Hydroxytryptamine-7 Receptors. The Journal of Pharmacology and Experimental Therapeutics, 1994, 268, 1403] with the following slight changes. The respective part of the literature description is hereby incorporated by reference and forms part of the disclosure.
The commercial membrane is diluted (1:40 dilution) with the binding buffer: 50 mM Tris-HCl, 10 mM MgCl2, 0.5 mM EDTA (pH 7.4). The radioligand used is [^3H]-LSD at a concentration of 2.7 nM with a final volume of 200 μl. Incubation is initiated by adding 100 μl of membrane suspension, (≈22.9 μg membrane protein), and is prolonged for 60 minutes at a temperature of 37° C. The incubation is ended by fast filtration in a Brandel Cell Harvester through fiber glass filters made by Schleicher & Schuell GF 3362 pretreated with a solution of polyethylenimine at 0.5%. The filters are washed three times with three milliliters of buffer Tris-HCl 50 mM pH 7.4. The filters are transferred to flasks and 5 ml of Ecoscint H liquid scintillation cocktail are added to each flask. The flasks are allowed to reach equilibrium for several hours before counting with a Wallac Winspectral 1414 scintillation counter. Non-specific binding is determined in the presence of 100 μM of serotonin. Tests were made in triplicate. The inhibition constants (Ki, nM) were calculated by non-linear regression analysis using the program EBDA/LIGAND described in Munson and Rodbard, Analytical Biochemistry, 1980, 107, 220, the respective part of which is hereby incorporated by reference and forms part of the disclosure.

Where a name gives a salt, the structure may show the parent alone.

T1 sequence (P50406 whole entry): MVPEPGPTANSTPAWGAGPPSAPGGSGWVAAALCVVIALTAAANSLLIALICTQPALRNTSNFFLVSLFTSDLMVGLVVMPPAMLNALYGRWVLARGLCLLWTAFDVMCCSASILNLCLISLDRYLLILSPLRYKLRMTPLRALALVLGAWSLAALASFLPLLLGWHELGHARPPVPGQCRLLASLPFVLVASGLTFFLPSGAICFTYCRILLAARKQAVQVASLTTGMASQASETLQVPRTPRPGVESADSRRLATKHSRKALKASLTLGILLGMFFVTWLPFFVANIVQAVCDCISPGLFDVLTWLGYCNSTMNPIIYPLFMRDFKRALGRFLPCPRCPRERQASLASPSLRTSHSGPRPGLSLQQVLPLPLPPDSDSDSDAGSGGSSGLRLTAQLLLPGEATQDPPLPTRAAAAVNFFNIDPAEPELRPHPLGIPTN

As usually defined, the inhibition is the change of the read-out against control, counted positive when it falls. As usually defined, the Ki is a dissociation constant, usually derived from enzyme kinetics or from competition with a known ligand. In the case of `O=S(=O)(Nc1ccc2c(c1)CCNC2)c1cccc2ccccc12` [Example 1, Naphthalene-1-sulfonic acid (1,2,3,4-tetrahydroisoquinolin-6-yl)-amide hydrochloride], the inhibition at 0.01 µM was 53.3%, the inhibition at 0.1 µM was 74.8% and the Ki worked out at 13.8 nM.

Regarding `CN(c1ccc2c(c1)CC[N+](C)(C)C2)S(=O)(=O)c1cccc2ccccc12` [Example 2, 2,2-Dimethyl-6-[methyl-(naphthalene-1-sulfonyl)-amino]-1,2,3,4-tetrahydro isoquinolinium iodide], the inhibition at 0.01 µM was 17% and the inhibition at 0.1 µM worked out at 19.6%.

As for `CN1CCc2cc(NS(=O)(=O)c3cccc4ccccc34)ccc2C1` [Example 3, Naphthalene-1-sulfonic acid (2-methyl-1,2,3,4-tetrahydro-isoquinolin-6-yl)-amide hydrochloride], the inhibition at 0.01 µM was found to be 3.9% and the inhibition at 0.1 µM amounted to 18.2%.

In the case of `Cc1c(S(=O)(=O)Nc2ccc3c(c2)CCNC3)sc2ccc(Cl)cc12` [Example 4, 5-Chloro-3-methyl-benzo[b]thiophene-2-sulfonic acid (1,2,3,4-tetrahydro-isoqui-nolin-6-yl)-amide hydrochloride], the inhibition at 0.01 µM is 27.3% and the inhibition at 0.1 µM worked out at 71.1%.

Regarding `Cc1c(S(=O)(=O)Nc2ccc3c(c2)CCN(C)C3)sc2ccc(Cl)cc12` [Example 5, 5-Chloro-3-methyl-benzo[b]thiophene-2-sulfonic acid (2-methyl-1,2,3,4-tetrahydro-isoquinolin-6-yl)-amide hydrochloride], the inhibition at 0.01 µM stood at 25.9%, the inhibition at 0.1 µM came out at 76.3% and the Ki is 79.8 nM.

For `Cc1ccc(S(=O)(=O)Nc2ccc3c(c2)CCNC3)c2ccccc12` [Example 6, 4-Methyl-naphthalene-1-sulfonic acid (1,2,3,4-tetrahydro-isoquinolin-6-yl)amide hydrochloride], the inhibition at 0.01 µM came to 60.1%, the inhibition at 0.1 µM was determined as 88.8% and the Ki turned out to be 14.5 ± 3.8 nM.

Consider `Cc1ccc(S(=O)(=O)Nc2ccc3c(c2)CCN(C)C3)c2ccccc12` [Example 7, 4-Methyl-naphthalene-1-sulfonic acid (2-methyl-1,2,3,4-tetrahydro-isoqui-nolin-6-yl)amide hydrochloride], for which the inhibition at 0.01 µM worked out at 80.3%, the inhibition at 0.1 µM stood at 92.2% and the Ki stood at 13.3 nM.

With `O=S(=O)(Nc1ccc2c(c1)CCNC2)c1ccc2ccccc2c1` [Example 8, Naphthalene-2-sulfonic acid (1,2,3,4-tetrahydro-isoquinolin-6-yl)-amide hydrochloride], the inhibition at 0.01 µM is 37.4% and the inhibition at 0.1 µM turned out to be 74.6%.

As for `CN1CCc2cc(NS(=O)(=O)c3ccc4ccccc4c3)ccc2C1` [Example 9, Naphthalene-2-sulfonic acid (2-methyl-1,2,3,4-tetrahydro-isoquinolin-6-yl)-amide hydrochloride], the inhibition at 0.01 µM was found to be 60.1%, the inhibition at 0.1 µM came to 86.5% and the Ki was found to be 9.2 ± 1.2 nM.

For `O=S(=O)(Nc1ccc2c(c1)CCNC2)c1c(Cl)nc2sccn12` [Example 10, 6-Chloro-imidazo[2,1-b] thiazole-5-sulfonic acid (1,2,3,4,- tetrahydro-isoquinolin-6-yl)-amide hydrochloride], the inhibition at 0.01 µM was found to be 85.8%, the inhibition at 0.1 µM was 94.6% and the Ki worked out at 1.3 ± 0.12 nM.

On to `CC(C)(C)OC(=O)N1CCc2cc(NS(=O)(=O)c3cccc4ccccc34)ccc2C1` [Example 13, 6-(Naphthalene-1-sulfonylamino)-3,4-dihydro-1H-isoquinoline-2-carboxylic acid tert-butyl ester], for which the inhibition at 0.01 µM is 30.7%, the inhibition at 0.1 µM is 28.8% and the Ki is 1.3 nM.

`Cc1c(S(=O)(=O)Nc2ccc3c(c2)CCN(C(=O)OC(C)(C)C)C3)sc2ccc(Cl)cc12` [Example 14, 6-(5-Chloro-3-methyl-benzo[b]thiophene-2-sulfonylamino)-3,4-dihydro-1H-isoquinoline-2-carboxylic acid tert-butyl ester]: the inhibition at 0.01 µM was -7.3% and the inhibition at 0.1 µM was -3%.

As to `Cc1ccc(S(=O)(=O)Nc2ccc3c(c2)CCN(C(=O)OC(C)(C)C)C3)c2ccccc12` [Example 15, 6-(4-Methyl-naphthalene-1-sulfonylamino)-3,4-dihydro-1H-isoquinoline-2-carboxylic acid tert-butyl ester], the inhibition at 0.01 µM is -5% and the inhibition at 0.1 µM stood at 8.2%.

In the case of `CC(C)(C)OC(=O)N1CCc2cc(NS(=O)(=O)c3ccc4ccccc4c3)ccc2C1` [Example 16, 6-(Naphthalene-2-sulfonylamino)-3,4-dihydro-1H-isoquinoline-2-carboxylic acid tert-butyl ester], the inhibition at 0.01 µM is 5.6% and the inhibition at 0.1 µM is 10.6%.

In the case of `COc1ccc(C)cc1S(=O)(=O)Nc1ccc2c(c1)CCN(C(=O)OC(C)(C)C)C2` [Example 17, 6-(2-Methoxy-5-methyl-benzenesulfonylamino)-3,4-dihydro-1H-isoquinoline-2-carboxylic acid tert-butyl ester], the inhibition at 0.01 µM is -1.3% and the inhibition at 0.1 µM is -2%.

For `CC(C)(C)OC(=O)N1CCc2cc(NS(=O)(=O)c3cccnc3)ccc2C1` [Example 18, 6-(Pyridine-3-sulfonylamino)-3,4-dihydro-1H-isoquinoline-2-carboxylic acid tert-butyl ester], the inhibition at 0.01 µM is -0.8% and the inhibition at 0.1 µM was 6.8%.

Turning to `CN1CCc2cc(NS(=O)(=O)c3c(Cl)nc4sccn34)ccc2C1` [Example 19, 6-Chloro-imidazo[2,1-b]thiazole-5-sulfonic acid (2-methyl-1,2,3,4tetrahydro-isoquinolin-6-yl)-amide hydrochloride], the inhibition at 0.01 µM turned out to be 74.2%, the inhibition at 0.1 µM turned out to be 90% and the Ki was 2.3 ± 0.2 nM.

As for `O=S(=O)(Nc1ccc2c(c1)CCNC2)c1ccccc1-c1ccccc1` [Example 22, Biphenyl-2-sulfonic acid (1,2,3,4-tetrahydro-isoquinolin-6-yl)-amide hydrochloride], the inhibition at 0.01 µM stood at 79.7%, the inhibition at 0.1 µM amounted to 90.8% and the Ki was 12.3 ± 6 nM.

For the molecule `O=S(=O)(Nc1ccc2c(c1)CCNC2)c1cc2ccccc2s1` [Example 24, Benzo[b]thiophene-2-sulfonic acid (1,2,3,4-tetrahydro-isoquinolin-6-yl)-amide hydrochloride], the inhibition at 0.01 µM stood at 53.6%, the inhibition at 0.1 µM was 86.8% and the Ki worked out at 12.6 ± 1.1 nM.

In the case of `O=S(=O)(Nc1ccc2c(c1)CCNC2)c1csc2ccccc12` [Example 29, Benzo[b]thiophene-3-sulfonic acid (1,2,3,4-tetrahydro-isoquinolin-6-yl)-amide hydrochloride], the inhibition at 0.01 µM stood at 88%, the inhibition at 0.1 µM was determined as 89.6% and the Ki is 5.3 ± 0.4 nM.

`O=S(=O)(Nc1ccc2c(c1)CCNC2)c1ccc(F)c2ccccc12` [Example 30, 4-Fluoro-naphthalene-1-sulfonic acid (1,2,3,4-tetrahydro-isoquinolin-6-yl)-amide hydrochloride]: the inhibition at 0.01 µM was determined as 63.2%, the inhibition at 0.1 µM came to 85.2% and the Ki was found to be 7.8 ± 0.1 nM.

As for `O=S(=O)(Nc1ccc2c(c1)CCNC2)c1ccc(Cl)c2ccccc12` [Example 31, 4-Chloro-naphthalene-1-sulfonic acid (1,2,3,4-tetrahydro-isoquinolin-6-yl)-amide hydrochloride], the inhibition at 0.01 µM was 72.3%, the inhibition at 0.1 µM was found to be 85.5% and the Ki amounted to 5.7 nM.

Regarding `CCc1ccc(OC)c(S(=O)(=O)Nc2ccc3c(c2)CCNC3)c1` [Example 35, 5-Ethyl-2-methoxy-N-(1,2,3,4-tetrahydro-isoquinolin-6-yl)-benzene sulfonamide hydrochloride], the inhibition at 0.01 µM came to 48.8%, the inhibition at 0.1 µM was 81.6% and the inhibition constant Ki stood at 14.2 ± 1.5 nM.

For `O=S(=O)(Nc1ccc2c(c1)CCNC2)c1cccc2c(Cl)cccc12` [Example 42, 5-Chloro-naphthalene-1-sulfonic acid (1,2,3,4-tetrahydro-isoquinolin-6-yl)-amide hydrochloride], the inhibition at 0.01 µM is 78.2%, the inhibition at 0.1 µM turned out to be 88.9% and the Ki came to 9.3 ± 2.2 nM.
